Measurements from patent US20170173002A1, “Compositions and Methods for Treating an Infection” (CMPD LICENSING, LLC, priority 2015, published 2017).

Columns and labels:
Candida species = assay: Expected efficacy of antifungal agents; settings: expected efficacy against Candida species
Vibrio cholerae = assay: Expected efficacy of antibiotic agents; settings: expected efficacy against Vibrio cholerae
Providencia rettgeri = assay: Expected efficacy of antibiotic agents; settings: expected efficacy against Providencia rettgeri
Shigella dysenteriae = assay: Expected efficacy of antibiotic agents; settings: expected efficacy against Shigella dysenteriae
Brucella species = settings: expected efficacy against Brucella species
Citrobacter freundii = assay: Expected efficacy of antibiotic agents; settings: expected efficacy against Citrobacter freundii
[1] = system: Acinetobacter calcoaceticus; assay: Expected efficacy of antibiotic agents; settings: expected efficacy against Acinetobacter calcoaceticus
Klebsiella pneumoniae = assay: Expected efficacy of antibiotic agents; settings: expected efficacy against Klebsiella pneumoniae
Proteus mirabilis = assay: Expected efficacy of antibiotic agents; settings: expected efficacy against Proteus mirabilis
[2] = system: Methicillin resistant staph aureus (MRSA); assay: Expected efficacy of antibiotic agents; settings: expected efficacy against Methicillin resistant staph aureus (MRSA)
[3] = system: Staphylococcus aureus (MSSA); assay: Expected efficacy of antibiotic agents; settings: expected efficacy against Staphylococcus aureus (MSSA)
Serratia marcescens = assay: Expected efficacy of antibiotic agents; settings: expected efficacy against Serratia marcescens
Shigella sonnei = assay: Expected efficacy of antibiotic agents; settings: expected efficacy against Shigella sonnei
Escherichia coli = assay: Expected efficacy of antibiotic agents; settings: expected efficacy against Escherichia coli
Campylobacter jejuni = assay: Expected efficacy of antibiotic agents; settings: expected efficacy against Campylobacter jejuni
Acinetobacter lwoffii = assay: Expected efficacy of antibiotic agents; settings: expected efficacy against Acinetobacter lwoffii
Enterobacter cloacae = assay: Expected efficacy of antibiotic agents; settings: expected efficacy against Enterobacter cloacae
Pseudomonas fluorescens = assay: Expected efficacy of antibiotic agents; settings: expected efficacy against Pseudomonas fluorescens
Moraxella catarrhalis = assay: Expected efficacy of antibiotic agents; settings: expected efficacy against Moraxella catarrhalis
[4] = system: Klebsiella (Calymmatobacterium) granulomatis; assay: Expected efficacy of antibiotic agents; settings: expected efficacy against Klebsiella (Calymmatobacterium) granulomatis
Clostridium perfringens = settings: expected efficacy against Clostridium perfringens
Rickettsiae = settings: expected efficacy against Rickettsiae
Citrobacter diversus = assay: Expected efficacy of antibiotic agents; settings: expected efficacy against Citrobacter diversus
Enterobacter sakazakii = assay: Expected efficacy of antibiotic agents; settings: expected efficacy against Enterobacter sakazakii
Yersinia pestis = settings: expected efficacy against Yersinia pestis
Morganella morganii = assay: Expected efficacy of antibiotic agents; settings: expected efficacy against Morganella morganii
Acinetobacter baumannii = assay: Expected efficacy of antibiotic agents; settings: expected efficacy against Acinetobacter baumannii
Francisella tularensis = settings: expected efficacy against Francisella tularensis
Shigella flexneri = assay: Expected efficacy of antibiotic agents; settings: expected efficacy against Shigella flexneri
Enterobacter aerogenes = assay: Expected efficacy of antibiotic agents; settings: expected efficacy against Enterobacter aerogenes
Neisseria meningitidis = assay: Expected efficacy of antibiotic agents; settings: expected efficacy against Neisseria meningitidis
Haemophilus influenzae = assay: Expected efficacy of antibiotic agents; settings: expected efficacy against Haemophilus influenzae
Neisseria gonorrhoeae = assay: Expected efficacy of antibiotic agents; settings: expected efficacy against Neisseria gonorrhoeae
Bordetella pertussis = assay: Expected efficacy of antibiotic agents; settings: expected efficacy against Bordetella pertussis
Klebsiella oxytoca = assay: Expected efficacy of antibiotic agents; settings: expected efficacy against Klebsiella oxytoca
Legionella pneumophila = settings: expected efficacy against Legionella pneumophila
Corynebacterium jeikeium = assay: Expected efficacy of antibiotic agents; settings: expected efficacy against Corynebacterium jeikeium
Pseudomonas aeruginosa = assay: Expected efficacy of antibiotic agents; settings: expected efficacy against Pseudomonas aeruginosa
Haemophilus ducreyi = assay: Expected efficacy of antibiotic agents; settings: expected efficacy against Haemophilus ducreyi
Streptococcus pyogenes = assay: Expected efficacy of antibiotic agents; settings: expected efficacy against Streptococcus pyogenes
Providencia stuartii = assay: Expected efficacy of antibiotic agents; settings: expected efficacy against Providencia stuartii
[5] = system: Corynebacterium urealyticum; assay: Expected efficacy of antibiotic agents; settings: expected efficacy against Corynebacterium urealyticum
Shigella boydii = assay: Expected efficacy of antibiotic agents; settings: expected efficacy against Shigella boydii
Salmonella typhi = assay: Expected efficacy of antibiotic agents; settings: expected efficacy against Salmonella typhi
Proteus vulgaris = assay: Expected efficacy of antibiotic agents; settings: expected efficacy against Proteus vulgaris
Bartonella bacilliformis = assay: Expected efficacy of antibiotic agents; settings: expected efficacy against Bartonella bacilliformis
[6] = system: Haemophilus parainfluenzae; assay: Expected efficacy of antibiotic agents; settings: expected efficacy against Haemophilus parainfluenzae
Chlamydia pneumoniae = assay: Expected efficacy of antibiotic agents; settings: expected efficacy against Chlamydia pneumoniae
[7] = system: Staphylococcus epidermidis; assay: Expected efficacy of antibiotic agents; settings: expected efficacy against Staphylococcus epidermidis
Bacteroides fragilis = assay: Expected efficacy of antibiotic agents; settings: expected efficacy against Bacteroides fragilis
Enterococcus faecium = assay: Expected efficacy of antibiotic agents; settings: expected efficacy against Enterococcus faecium
Chlamydia trachomatis = assay: Expected efficacy of antibiotic agents; settings: expected efficacy against Chlamydia trachomatis
Streptococcus agalactiae = assay: Expected efficacy of antibiotic agents; settings: expected efficacy against Streptococcus agalactiae
Clostridium difficile = assay: Expected efficacy of antibiotic agents; settings: expected efficacy against Clostridium difficile
Mycoplasma pneumoniae = assay: Expected efficacy of antibiotic agents; settings: expected efficacy against Mycoplasma pneumoniae
Streptococcus pneumoniae = assay: Expected efficacy of antibiotic agents; settings: expected efficacy against Streptococcus pneumoniae
Chlamydia psittaci = settings: expected efficacy against Chlamydia psittaci
Enterococcus faecalis = assay: Expected efficacy of antibiotic agents; settings: expected efficacy against Enterococcus faecalis

Compound: C[C@@H]1[C@H](O)[C@@H](C)/C=C/C=C/CC/C=C/C=C/C=C/C=C/C(O[C@H]2O[C@H](C)[C@@H](O)[C@H](N)[C@@H]2O)CC2O[C@](O)(CC(O)C(O)CCC(O)CC(O)CC(O)CC(=O)O[C@H]1C)CC(O)C2C(=O)O (stereo partly shown) [Nystatin, nystatin]
- Efficacy (Candida species): yes

Compound: C/C(=C\C(=O)OCCCCCCCCC(=O)O)C[C@@H]1OC[C@H](C[C@@H]2O[C@H]2[C@@H](C)[C@H](C)O)[C@@H](O)[C@H]1O [Bactroban]
- Efficacy (Vibrio cholerae): no
- Efficacy (Providencia rettgeri): no
- Efficacy (Shigella dysenteriae): no
- Efficacy (Brucella species): no
- Efficacy (Citrobacter freundii): no
- Efficacy [1]: no
- Efficacy (Klebsiella pneumoniae): no
- Efficacy (Proteus mirabilis): no
- Efficacy [2]: yes
- Efficacy [3]: yes
- Efficacy (Serratia marcescens): no
- Efficacy (Shigella sonnei): no
- Efficacy (Escherichia coli): no
- Efficacy (Campylobacter jejuni): no
- Efficacy (Acinetobacter lwoffii): no
- Efficacy (Enterobacter cloacae): no
- Efficacy (Pseudomonas fluorescens): no
- Efficacy (Moraxella catarrhalis): no
- Efficacy [4]: no
- Efficacy (Clostridium perfringens): no
- Efficacy (Rickettsiae): no
- Efficacy (Citrobacter diversus): no
- Efficacy (Enterobacter sakazakii): no
- Efficacy (Yersinia pestis): no
- Efficacy (Morganella morganii): no
- Efficacy (Acinetobacter baumannii): no
- Efficacy (Francisella tularensis): no
- Efficacy (Shigella flexneri): no
- Efficacy (Enterobacter aerogenes): no
- Efficacy (Neisseria meningitidis): no
- Efficacy (Haemophilus influenzae): no
- Efficacy (Neisseria gonorrhoeae): no
- Efficacy (Bordetella pertussis): no
- Efficacy (Klebsiella oxytoca): no
- Efficacy (Legionella pneumophila): no
- Efficacy (Corynebacterium jeikeium): no
- Efficacy (Pseudomonas aeruginosa): no
- Efficacy (Haemophilus ducreyi): no
- Efficacy (Streptococcus pyogenes): yes
- Efficacy (Providencia stuartii): no
- Efficacy [5]: no
- Efficacy (Shigella boydii): no
- Efficacy (Salmonella typhi): no
- Efficacy (Proteus vulgaris): no
- Efficacy (Bartonella bacilliformis): no

Compound: O=C(O)c1cn(C2CC2)c2cc(N3CCNCC3)c(F)cc2c1=O [Ciprofloxacin, ciprofloxacin]
- Efficacy (Vibrio cholerae): yes
- Efficacy (Providencia rettgeri): yes
- Efficacy (Shigella dysenteriae): yes
- Efficacy (Citrobacter freundii): yes
- Efficacy (Klebsiella pneumoniae): yes
- Efficacy (Proteus mirabilis): yes
- Efficacy [2]: no
- Efficacy [6]: yes
- Efficacy (Serratia marcescens): yes
- Efficacy (Shigella sonnei): yes
- Efficacy (Chlamydia pneumoniae): yes
- Efficacy (Escherichia coli): yes
- Efficacy (Campylobacter jejuni): yes
- Efficacy [7]: yes
- Efficacy (Pseudomonas fluorescens): yes
- Efficacy (Moraxella catarrhalis): yes
- Efficacy (Rickettsiae): yes
- Efficacy (Citrobacter diversus): yes
- Efficacy (Yersinia pestis): yes
- Efficacy (Morganella morganii): yes
- Efficacy (Francisella tularensis): yes
- Efficacy (Shigella flexneri): yes
- Efficacy (Enterobacter aerogenes): yes
- Efficacy (Neisseria meningitidis): yes
- Efficacy (Haemophilus influenzae): yes
- Efficacy (Bacteroides fragilis): no
- Efficacy (Neisseria gonorrhoeae): yes
- Efficacy (Klebsiella oxytoca): yes
- Efficacy (Enterococcus faecium): no
- Efficacy (Legionella pneumophila): yes
- Efficacy (Corynebacterium jeikeium): no
- Efficacy (Pseudomonas aeruginosa): yes
- Efficacy (Providencia stuartii): yes
- Efficacy (Shigella boydii): yes
- Efficacy (Salmonella typhi): yes
- Efficacy (Proteus vulgaris): yes
- Efficacy (Bartonella bacilliformis): yes

Compound: CC[C@H]1OC(=O)[C@H](C)[C@@H](O[C@H]2C[C@@](C)(OC)[C@@H](O)[C@H](C)O2)[C@H](C)[C@@H](O[C@@H]2O[C@H](C)C[C@H](N(C)C)[C@H]2O)[C@](C)(O)C[C@@H](C)CN(C)[C@H](C)[C@@H](O)[C@]1(C)O [Azithromycin]
- Efficacy (Vibrio cholerae): yes
- Efficacy (Providencia rettgeri): no
- Efficacy (Brucella species): no
- Efficacy (Chlamydia trachomatis): yes
- Efficacy (Citrobacter freundii): no
- Efficacy [1]: no
- Efficacy (Klebsiella pneumoniae): no
- Efficacy (Proteus mirabilis): no
- Efficacy [2]: no
- Efficacy [3]: yes
- Efficacy (Serratia marcescens): no
- Efficacy (Chlamydia pneumoniae): yes
- Efficacy (Escherichia coli): no
- Efficacy (Campylobacter jejuni): yes
- Efficacy (Acinetobacter lwoffii): no
- Efficacy [7]: yes
- Efficacy (Streptococcus agalactiae): yes
- Efficacy (Enterobacter cloacae): no
- Efficacy (Pseudomonas fluorescens): no
- Efficacy (Moraxella catarrhalis): yes
- Efficacy (Clostridium difficile): no
- Efficacy [4]: no
- Efficacy (Mycoplasma pneumoniae): yes
- Efficacy (Clostridium perfringens): no
- Efficacy (Rickettsiae): yes
- Efficacy (Citrobacter diversus): no
- Efficacy (Enterobacter sakazakii): no
- Efficacy (Morganella morganii): no
- Efficacy (Acinetobacter baumannii): no
- Efficacy (Streptococcus pneumoniae): yes
- Efficacy (Chlamydia psittaci): yes
- Efficacy (Francisella tularensis): no
- Efficacy (Enterobacter aerogenes): no
- Efficacy (Neisseria meningitidis): yes
- Efficacy (Haemophilus influenzae): yes
- Efficacy (Bacteroides fragilis): no
- Efficacy (Bordetella pertussis): yes
- Efficacy (Klebsiella oxytoca): no
- Efficacy (Enterococcus faecium): no
- Efficacy (Legionella pneumophila): yes
- Efficacy (Corynebacterium jeikeium): no
- Efficacy (Enterococcus faecalis): no
- Efficacy (Pseudomonas aeruginosa): no
- Efficacy (Streptococcus pyogenes): yes
- Efficacy (Providencia stuartii): no
- Efficacy (Proteus vulgaris): no
- Efficacy (Bartonella bacilliformis): yes
